Earlier results as cited in paper PMC12308805, “Ultrahigh-Throughput Virtual Screening Strategies against PPI Targets: A Case Study of STAT Inhibitors” (Journal of Chemical Information and Modeling, 2025).

Tested on: STAT3
Settings: sheet 6QHD_actives_decoys; retrospective screening set for STAT3 SH2 domain (PDB 6QHD); […]; ref DUD-E; cited from earlier work
In the case of `COc1cc(S(=O)(=O)N2CCCCC2)ccc1N/C=C1/C(=O)NC(=O)N(c2ccccc2)C1=O` [Decoy344], the Type is listed as “Inactive (Decoy)”. In the case of `CO[C@@H]1C[C@H](O[C@H]2CC[C@]3(/C=N/CC#N)[C@H]4CC[C@]5(C)[C@@H](C6=CC(=O)OC6)CC[C@]5(O)[C@@H]4CC[C@]3(O)C2)O[C@@H](C)[C@@H]1O` [Decoy348], the Type is given as “Inactive (Decoy)”. In the case of `Cc1ccc(S(=O)(=O)NCCCCNS(=O)(=O)c2ccc(C)c([N+](=O)[O-])c2)cc1[N+](=O)[O-]` [Decoy360], the Type is given as “Inactive (Decoy)”. In the case of `Cc1nccc(NS(=O)(=O)c2ccc(NC(=O)c3cccc(C(=O)Nc4ccc(S(=O)(=O)Nc5ccnc(C)n5)cc4)c3)cc2)n1` [Decoy361], the Type is given as “Inactive (Decoy)”. In the case of `CCCCCC[C@H]1C(=O)O[C@@H](C)[C@@H](NC(=O)c2cccc(NC=O)c2O)C(=O)O[C@@H](C)[C@H]1OC(=O)CCC` [Decoy385], the Type is given as “Inactive (Decoy)”.

Same assay, conditions: sheet 6QHD_actives_decoys; retrospective screening set for STAT3 SH2 domain (PDB 6QHD); decoys generated with DUD-E and presumed inactive, not tested; ref DUD-E; cited from earlier work
In the case of `CNc1ncnc2c1ncn2[C@H]1C[C@H](O)[C@@H](COC(c2ccccc2)(c2ccc(OC)cc2)c2ccc(OC)cc2)O1` [Decoy334], the Type is listed as “Inactive (Decoy)”. For `COC(=O)c1ccc(C(=O)OC)c(NC(=O)c2ccc(C(=O)Nc3cc(C(=O)OC)ccc3C(=O)OC)cc2)c1` [Decoy335], the Type is given as “Inactive (Decoy)”. For `C=CCn1c(Cc2csc(N)n2)nnc1SCC(=O)Nc1ccc(S(=O)(=O)Nc2cc(C)on2)cc1` [Decoy336], the Type is given as “Inactive (Decoy)”. In the case of `COc1ccc([C@H](C(=O)NCS(=O)(=O)c2ccc(C)cc2)N(Cc2ccco2)C(=O)CCl)cc1` [Decoy337], the Type is given as “Inactive (Decoy)”. In the case of `COC(=O)[C@@H]1O[C@H](OC/C(=N/NC(N)=O)[C@@]2(O)CC[C@@H]3[C@@H]4CC[C@@H]5C[C@H](OC(C)=O)CC[C@@]5(C)[C@H]4C(=O)C[C@]32C)[C@@H](OC(C)=O)[C@H](OC(C)=O)[C@H]1OC(C)=O` [Decoy338], the Type is given as “Inactive (Decoy)”. In the case of `COC(=O)[C@@H]1O[C@H](OC/C(=N/NC(N)=O)[C@@]2(O)CC[C@@H]3[C@@H]4CC[C@@H]5C[C@H](OC(C)=O)CC[C@]5(C)[C@H]4C(=O)C[C@]32C)[C@@H](OC(C)=O)[C@H](OC(C)=O)[C@H]1OC(C)=O` [Decoy339], the Type is given as “Inactive (Decoy)”. In the case of `COC(=O)[C@@H]1O[C@H](OC/C(=N/NC(N)=O)[C@@]2(O)CC[C@@H]3[C@@H]4CC[C@H]5C[C@H](OC(C)=O)CC[C@@]5(C)[C@H]4C(=O)C[C@]32C)[C@@H](OC(C)=O)[C@H](OC(C)=O)[C@H]1OC(C)=O` [Decoy340], the Type is given as “Inactive (Decoy)”. In the case of `COC(=O)/C(=N/NC(C)(C)C)[C@@H](C(=O)C(=O)Nc1cc(C)ccc1C)c1nc2ccccc2[nH]c1=O` [Decoy341], the Type is given as “Inactive (Decoy)”. For `C/C=C(/C[C@@H](O)N(C=O)Cc1cnc(C)nc1N)SS/C(=C/C)C[C@@H](O)N(C=O)Cc1cnc(C)nc1N` [Decoy342], the Type is listed as “Inactive (Decoy)”. For `C=CCSc1nnc(/N=C(\O)CSc2nnc(N/N=C/c3c(O)ccc4ccccc34)n2N)s1` [Decoy343], the Type is given as “Inactive (Decoy)”. For `COC(=O)[C@@H]1[C@H](O)[C@H](C)[C@H](O)O[C@@H]1[C@H](C)[C@H](O)[C@@H](C)/C=C\C=C(/C)C(=O)Nc1c(C)c(OC(C)=O)c2c(c1O)C(=O)C(C)=C1OCOC(/C(C)=C/C(C)=O)=C12` [Decoy345], the Type is listed as “Inactive (Decoy)”. For `CCCCOc1ccc([C@H]2C(C(=O)c3nc4c(C)cccn4c3C)=C(O)C(=O)N2CCOC)cc1OC` [Decoy346], the Type is given as “Inactive (Decoy)”. In the case of `CC(=O)O[C@H]1[C@H](O)[C@H]([C@@](C)(O)CC[C@@H](O)C(C)(C)O)[C@@]2(C)CC[C@@]34C[C@@]35CC[C@H](O[C@@H]3OC[C@@H](O)[C@H](O)[C@H]3O)C(C)(C)[C@@H]5CC[C@H]4[C@]12C` [Decoy347], the Type is given as “Inactive (Decoy)”. For `COC(=O)[C@@H](/C(=N/N)C(=O)Nc1cc(Cl)ccc1Cl)c1nc2ccc([N+](=O)[O-])cc2nc1O` [Decoy349], the Type is given as “Inactive (Decoy)”. In the case of `CN(C)S(=O)(=O)c1cccc(C(=O)NNC(=O)c2cn(-c3ccccc3)nc2-c2cccnc2)c1` [Decoy350], the Type is listed as “Inactive (Decoy)”. In the case of `COC(=O)c1ccc(NC(=O)CSc2nc(N)c(NC(=O)c3ccc(Br)o3)c(=O)[nH]2)cc1` [Decoy351], the Type is listed as “Inactive (Decoy)”. For `COC(=O)CCSCCO[C@@H]1O[C@H](CO)[C@@H](O[C@@H]2O[C@H](CO)[C@@H](O)[C@@H](O)[C@H]2O)[C@@H](O)[C@H]1NC(C)=O` [Decoy352], the Type is given as “Inactive (Decoy)”. For `COC(=O)CCSCCO[C@@H]1O[C@H](CO)[C@@H](O[C@@H]2O[C@H](CO)[C@@H](O)[C@@H](O)[C@H]2O)[C@H](O)[C@@H]1NC(C)=O` [Decoy353], the Type is listed as “Inactive (Decoy)”. In the case of `COC(=O)CCSCCO[C@@H]1O[C@H](CO)[C@@H](O[C@@H]2O[C@H](CO)[C@@H](O)[C@@H](O)[C@H]2O)[C@H](O)[C@H]1NC(C)=O` [Decoy354], the Type is listed as “Inactive (Decoy)”. In the case of `COc1ccc(/C=C(\C#N)C(=O)Nc2ccc(S(=O)(=O)Nc3ccc(C)cc3)cc2)cc1OS(=O)(=O)c1ccc(NC(C)=O)cc1` [Decoy355], the Type is listed as “Inactive (Decoy)”. In the case of `O=C(O)C[C@H](NC(=O)CN(CCN(CC(=O)O)CC(=O)N[C@@H](CC(=O)O)C(=O)O)CC(=O)O)C(=O)O` [Decoy356], the Type is listed as “Inactive (Decoy)”. For `COc1ccc(NC(=O)C2=C(C)NC(SCC(=O)Nc3cccc(OC)c3)=C(C#N)[C@@H]2c2ccco2)cc1` [Decoy357], the Type is given as “Inactive (Decoy)”. For `CCOC(=O)c1ccc(NC(=O)C/C(C)=N/NC(=O)C(=O)Nc2cccc(Cl)c2C)cc1` [Decoy358], the Type is given as “Inactive (Decoy)”. In the case of `COc1ccc2[nH]cc(CCN/C(=N\C(=O)CS[C@H]3N=N[C@@H](N)S3)Nc3nc(C)cc(C)n3)c2c1` [Decoy359], the Type is given as “Inactive (Decoy)”. In the case of `COc1cc(C(=O)NCC(=O)N/N=C/c2cc(Br)ccc2OC(=O)c2ccc(C)cc2)cc(OC)c1OC` [Decoy362], the Type is given as “Inactive (Decoy)”. For `CNC(=O)Cn1c(=O)[nH]c(NC)c(C(c2ccc(Cl)cc2)c2c(NC)[nH]c(=O)n(CC(=O)NC)c2=O)c1=O` [Decoy363], the Type is given as “Inactive (Decoy)”. For `COC(=O)c1sc(S(=O)(=O)NCC(=O)OCC(=O)Nc2cccc(C#N)c2)c(C(=O)OC)c1C` [Decoy364], the Type is given as “Inactive (Decoy)”. In the case of `O=C(CN(c1cccc([N+](=O)[O-])c1)S(=O)(=O)c1ccccc1)Nc1ccccc1C(=O)NCc1ccco1` [Decoy365], the Type is listed as “Inactive (Decoy)”. In the case of `COC(=O)c1cc(NC(=S)/N=C(/NCCN2CCOCC2)Nc2nc(C)cc(C)n2)cc(C(=O)OC)c1` [Decoy366], the Type is given as “Inactive (Decoy)”. For `C/C=C1/[C@H](O[C@@H]2O[C@H](CO)[C@@H](O)[C@H](O)[C@H]2O)OC=C(C(=O)OC)[C@H]1CC(=O)OCCc1ccc(O)c(O)c1` [Decoy367], the Type is given as “Inactive (Decoy)”. For `CCCCN(CC(=O)Nc1c(-c2ccccc2)c(C)nn1-c1ccc(OC)cc1)C(=O)c1ccc(OC)cc1OC` [Decoy368], the Type is given as “Inactive (Decoy)”. In the case of `C=C1N=C2C[C@H](c3ccc(OC)c(OC)c3)CC(=O)C2[C@H](c2cc(Br)c(O)c(OCC)c2)C1C(=O)OCCOCC` (stereo partly drawn) [Decoy369], the Type is given as “Inactive (Decoy)”. For `C=CCOC(=O)[C@H]1O[C@@H](OC(=O)c2cc(S(N)(=O)=O)c(Cl)cc2NCc2ccco2)[C@H](O)[C@@H](O)[C@@H]1O` [Decoy370], the Type is given as “Inactive (Decoy)”. In the case of `CCOC(=O)c1ccc(NC(=O)CSc2nc3cc(C(=O)OC)ccc3c(=O)n2CCN2CCOCC2)cc1` [Decoy371], the Type is given as “Inactive (Decoy)”. For `COc1ccc(C(=O)O[C@H]2[C@@H]3C=CO[C@@H](O[C@@H]4O[C@H](COC(C)=O)[C@@H](OC(C)=O)[C@H](OC(C)=O)[C@H]4OC(C)=O)[C@@H]3[C@](O)(COC(C)=O)[C@@H]2O)cc1` [Decoy372], the Type is given as “Inactive (Decoy)”. For `COc1ccc(C(=O)O[C@H]2[C@@H]3C=CO[C@H](O[C@@H]4O[C@H](COC(C)=O)[C@@H](OC(C)=O)[C@H](OC(C)=O)[C@H]4OC(C)=O)[C@@H]3[C@](O)(COC(C)=O)[C@@H]2O)cc1` [Decoy373], the Type is given as “Inactive (Decoy)”. In the case of `O=C(CCN(Cc1ccco1)S(=O)(=O)c1ccc(Cl)cc1)NNC(=O)Nc1ccc(OC(F)(F)F)cc1` [Decoy374], the Type is given as “Inactive (Decoy)”. In the case of `COc1ccc(C(=O)N/C(=C\c2cn(S(=O)(=O)N(C)C)c3ccccc23)C(=O)NCCN2CCOCC2)cc1OC` [Decoy375], the Type is given as “Inactive (Decoy)”. In the case of `NC(=O)CSc1nnc(NC(=O)CSc2nnc(N/N=C/c3cccc4ccccc34)n2N)s1` [Decoy376], the Type is listed as “Inactive (Decoy)”. For `O=C(NCCCN1CCOCC1)C(C(=O)NCCCN1CCOCC1)c1ncc(C(F)(F)F)cc1Cl` [Decoy377], the Type is listed as “Inactive (Decoy)”. For `CC(C)CNC(=O)c1ccc2c(=O)n(C(C)C)c3nn(CC(=O)Nc4ccc(F)cc4)c(=O)n3c2c1` [Decoy378], the Type is listed as “Inactive (Decoy)”. For `COc1cc(/C=N/Nc2nnc(SCC(=O)Nc3ccc(C)cc3C)n2N)cc(OC)c1OC` [Decoy379], the Type is listed as “Inactive (Decoy)”. In the case of `C=CCn1c(SCC(=O)Nc2sc(C(N)=O)c(C)c2C(=O)OC)nnc1-c1ccc(N(C)C)cc1` [Decoy380], the Type is given as “Inactive (Decoy)”. In the case of `CC(=O)N[C@@H]1[C@H]([C@H](O)[C@H](O)CO)O[C@@](O[C@H]2[C@@H](O)[C@@H](O[C@@H]([C@@H](O[C@@H]3O[C@@H](C)[C@@H](O)[C@H](O)[C@@H]3O)[C@H](O)C=O)[C@H](O)CO)O[C@@H](CO)[C@H]2O)(C(=O)O)C[C@@H]1O` [Decoy381], the Type is given as “Inactive (Decoy)”. For `CC(=O)N[C@@H]1[C@H]([C@H](O)[C@H](O)CO)O[C@@](O[C@H]2[C@@H](O)[C@@H](O[C@@H]([C@@H](O[C@@H]3O[C@@H](C)[C@H](O)[C@H](O)[C@@H]3O)[C@H](O)C=O)[C@H](O)CO)O[C@@H](CO)[C@H]2O)(C(=O)O)C[C@@H]1O` [Decoy382], the Type is listed as “Inactive (Decoy)”. In the case of `Nc1ccc(/N=N\c2ccc3cc(S(=O)(=O)O)c(/N=N/c4ccc(/N=N/c5ccc(N)cc5N)c(S(=O)(=O)O)c4)c(O)c3c2)c(N)c1` [Decoy383], the Type is listed as “Inactive (Decoy)”. For `NCCCCCCNc1nc2c(N)ncnc2n1[C@H]1O[C@@H](CO[P@](=O)(O)O[P@](=O)(O)OP(=O)(O)O)[C@@H](O)[C@H]1O` [Decoy384], the Type is given as “Inactive (Decoy)”. For `COc1cc(NC(=S)/N=C(/NCCCN2CCOCC2)Nc2nc(C)cc(C)n2)cc(OC)c1OC` [Decoy386], the Type is listed as “Inactive (Decoy)”. In the case of `O=C(O)c1ccccc1NS(=O)(=O)c1ccc(NCCCN2CCOCC2)c([N+](=O)[O-])c1` [Decoy387], the Type is listed as “Inactive (Decoy)”.
